# Test results taken from patent US20230256059A1, “COMPOSITIONS FOR TREATING RESPIRATORY TRACT INFECTION AND USES THEREOF” (Lateral IP Pty Ltd, priority 2020, published 2023).
# Like-named read-outs stand apart in the source and are kept apart here. Bridge positions count the residues as written; N and C are the ends. Peptide text beside a SMILES is read from it.
# Columns and labels:
# [1] = tested on: HKx31 (H3N2) IAV; test: Titres of infectious virus in lung homogenates by standard plaque assay on MDCK cells; assay type: in vivo, C57BL/6 mice; conditions: day 4 post-infection; for reduction in levels of infectious virus in lung tissues: daily therapeutic 20 mg/kg intranasal from day 1
# Description: (§1) For virus infection studies, groups of 8 male C57BL/6 mice were randomized. […] Bronchoalveolar lavage (BAL) fluid was immediately obtained following euthanisation by flushing the lungs three times with 1 mL of PBS. Lungs were then removed and frozen immediately in liquid nitrogen. Titres of infectious virus in lung homogenates were determined by standard plaque assay on MDCK cells.
# [2] = tested on: BAL cells; assay type: in vivo, C57BL/6 mice; conditions: day 4 post-infection
# [3] = tested on: HKx31 (H3N2) IAV; parameters: species or system C57BL/6 mice; conditions: mouse, in vivo; for IAV-associated lethality: 5 mg/kg
# [4] = 20 mg/kg intranasal every 48 h
# [5] = tested on: respiratory tract infection by a virus; test: Case studies: oral AOD9604 in subjects with flu-like symptoms; assay type: in vivo, human
# Text: The subject is a person who presented with flu-like symptoms. The subject reported to have been free of flu-like symptoms over the past 8 years.
# The subject developed a very sore throat. On awakening the next day, the sore throat was more severe and their nose was running (rhinorrhea) and becoming worse throughout the day. Other symptoms that developed during the day included: • a persistent deep phlegmy cough; • high temperature; • body sweats; • chills; • muscle soreness; and • fatigue.
# Later that evening, the subject developed a loss of appetite, and an exacerbation of chills, body sweats, rhinorrhoea and persistent coughing. At around 8 pm that evening, the subject was administered ˜1 mg AOD9604 (SEQ ID NO:2), orally.
# The subject is a person who in the afternoon presented with the flu, with symptoms including a persistent deep phlegmy cough, high temperature, body sweats, chills, muscle soreness and fatigue. The subject was administered ˜1 mg AOD9604 (SEQ ID NO:2), orally. The subject recalls sleeping well that evening.
# [6] = tested on: HKx31 (H3N2) IAV; test: Assessment of lung oedema and vascular leakage; parameters: species or system C57BL/6 mice; conditions: mouse, in vivo
# [7] = tested on: HKx31; test: HKx31 infection of human PBECs, infectious virus in cell supernatants; assay type: cell-based; conditions: 24 hours following HKx31 infection
# [8] = tested on: SARS-CoV-2; test: SARS-CoV-2 infection of Vero cells, cytopathic effect inhibition assay; assay type: cell-based
# [9] = tested on: IL-6, MCP-1/CCL2, IFNγ, IL-10, IL-12p70, TNFα, IFNα, IFNβ, IFN λ2/3; test: Quantification of cytokines in mouse BAL fluid and sera (CBA, ELISA); assay type: in vivo, C57BL/6 mice; conditions: day 4 post-infection
# Description: as §1
# To detect cytokines, BAL fluid was collected and stored at −80° C. Levels of IL-6, MCP-1/CCL2, IFNγ, IL-10, IL-12p70, and TNFα proteins were determined by cytokine bead array (CBA) using the mouse inflammation kit (Becton Dickinson). Levels of mouse IFNα were determined by sandwich ELISA using mouse monoclonal clone F18 (Thermo Scientific) and rabbit polyclonal antibodies (PBL) (Thomas et al., 2014). Levels of mouse IFNβ were determined by sandwich ELISA using mouse monoclonal clone 7F-D3 (Abcam) and rabbit polyclonal antibodies (PBL) (Thomas et al., 2014). Mouse IFN λ2/3 was quantified by ELISA (R&D Systems).
# [10] = cited from earlier work
# [11] = daily therapeutic 20 mg/kg intranasal from day 1
# [12] = prophylactic 20 mg/kg intranasal, every 48 h
compound,measurement,setting,value
"CC[C@H](C)[C@H](NC(=O)[C@H](CCCNC(=N)N)NC(=O)[C@H](CC(C)C)NC(=O)[C@@H](N)Cc1ccc(O)cc1)C(=O)N[C@H](C(=O)N[C@@H](CCC(N)=O)C(=O)N[C@H]1CSSC[C@@H](C(=O)NCC(=O)N[C@@H](Cc2ccccc2)C(=O)O)NC(=O)[C@H](CO)NC(=O)CNC(=O)[C@H](CCC(=O)O)NC(=O)[C@H](C(C)C)NC(=O)[C@H](CO)NC(=O)[C@H](CCCNC(=N)N)NC1=O)C(C)C [LAT8881, H-YLRIVQCRSVEGSCGF-OH] (H-YLRIVQCRSVEGSCGF-OH; disulfide 7-14)",reduction in levels of infectious virus in lung tissues,[1],1.5 fold
same,reduction in infectious viral loads in the lung,"[1]; prophylactic: 20 mg/kg intranasal 24 h prior to infection, then every 48 h",1.6 fold
same,inflammatory Ly6C+ macrophages in the airways,[2]; [11],significantly fewer
same,neutrophils in BAL,[2]; [11],significantly fewer
same,total BAL cellularity,[2]; [11],significantly reduced
same,total numbers of dendritic cells,[2]; [11],comparable to PBS-treated infected controls
same,dendritic cells in the airways,[2]; [12],no significant numerical difference
same,inflammatory Ly6C+ macrophages in the airways,[2]; [12],no significant numerical difference
same,leukocyte cell death (Annexin V and PI staining of BAL cells),[2]; [12],no significant differences
same,macrophages in BAL,[2]; [12],significantly fewer
same,neutrophils in BAL,[2]; [12],significantly fewer
same,total BAL cellularity,[2]; [12],significantly reduced
same,"clinical signs of disease (weight loss, limited mobility, laboured breathing)",[3],reduced clinical signs of disease including weight loss
same,delay of IAV-associated lethality,[3],48 to 72 h
same,"onset of clinical signs of severe disease (weight loss, limited mobility, laboured breathing)",[3],delayed the onset of clinical signs of severe disease
same,survival of mice (from 0% in PBS controls),[3],approximately 30%
same,IAV-associated lethality,[3],delayed IAV-associated lethality
same,weight loss or clinical signs of disease in uninfected mice,[4],did not result in weight loss or any clinical signs of disease
same,remaining symptoms on waking about 7 hours later,[5]; Case study 1: ~1 mg orally,the only remaining symptoms were a runny nose and a slight cough
same,symptoms of the flu by the morning,[5]; Case study 2: ~1 mg orally,all symptoms of the flu had disappeared except for a slight runny nose and a dry cough
same,time until reported symptom-free,"[5]; Case study 2: ~1 mg orally, after the morning following dosing",around 24 hours
same,alleviation of symptoms of respiratory tract infection (conclusion of case studies),"[5]; ~1 mg orally, two case studies",capable of alleviating the symptoms of respiratory tract infection by a virus
same,BAL fluid protein concentrations (vascular leakage),[6],significantly reduced
same,lung wet-to-dry ratios,[6],no significant differences
same,levels of infectious virus in cell supernatants,[7],no significant impact
same,SARS-CoV-2 infection of Vero cells (cytopathic effect inhibition),[8],did not alter SARS-CoV-2 infection of Vero cells
same,IL-6 in the BAL fluid,[9]; [11],significantly reduced
same,TNFα levels in BAL fluid,[9]; [11],less profound reduction
same,concentration of IFN λ2/3 in BAL fluid,[9]; [11],not significantly different
same,concentration of IFNα in BAL fluid,[9]; [11],not significantly different
same,concentration of IFNβ in BAL fluid,[9]; [11],not significantly different
same,concentration of IL-10 in BAL fluid,[9]; [11],not significantly different
same,concentration of IL-12p70 in BAL fluid,[9]; [11],not significantly different
same,levels of CCL2 in BAL fluid,[9]; [11],limited levels of CCL2
same,reduction of IFNγ in BAL fluid,[9]; [11],2 fold
same,reduction of IL-6 in the serum,[9]; [11],approximately 1.6 fold
same,concentration of CCL2 in BAL fluid,[9]; [12],comparable with PBS-treated IAV infected controls
same,concentration of IL-6 in BAL fluid,[9]; [12],comparable with PBS-treated IAV infected controls
same,concentration of IL-10 in BAL fluid,[9]; [12],comparable with PBS-treated IAV infected controls
same,concentration of IL-12p70 in BAL fluid,[9]; [12],comparable with PBS-treated IAV infected controls
same,concentration of TNFα in BAL fluid,[9]; [12],comparable with PBS-treated IAV infected controls
same,levels of IFN λ2/3,[9]; [12],no significant differences
same,levels of IFNα,[9]; [12],no significant differences
same,levels of IFNβ,[9]; [12],no significant differences
same,reduction of IFNγ in BAL fluid,[9]; [12],2 fold
same,reduction of IL-6 in the serum,[9]; [12],1.5 fold
H-CRSVEGSCGF-OH (cysteine pairing not given here; listed as Homo sapiens) [LAT9991F],reduction in levels of infectious virus in lung tissues,[1],2.4 fold
same,inflammatory Ly6C+ macrophages in the airways,[2]; [11],significantly fewer
same,neutrophils in BAL,[2]; [11],significantly fewer
same,numbers of macrophages in BAL,[2]; [11],reduced numbers of macrophages
same,total BAL cellularity,[2]; [11],significantly reduced
same,total numbers of dendritic cells,[2]; [11],comparable to PBS-treated infected controls
same,IAV-associated lethality,[3],delayed IAV-associated lethality
same,stability as metabolite in human serum,[10],known stable metabolite of LAT8881 in human serum
same,lung wet-to-dry ratios,[6],no significant differences
same,TNFα levels in BAL fluid,[9]; [11],less profound reduction
same,concentration of IFN λ2/3 in BAL fluid,[9]; [11],not significantly different
same,concentration of IFNα in BAL fluid,[9]; [11],not significantly different
same,concentration of IFNβ in BAL fluid,[9]; [11],not significantly different
same,concentration of IL-10 in BAL fluid,[9]; [11],not significantly different
same,concentration of IL-12p70 in BAL fluid,[9]; [11],not significantly different
same,reduction of IFNγ in BAL fluid,[9]; [11],2.3 fold
same,reduction of IL-6 in the serum,[9]; [11],approximately 1.6 fold
